From patent US20160347807A1, “TARGETING P53 AND ITS DNA-BINDING DOMAIN” (UNIVERSITY OF UTAH RESEARCH DOUNDATION, priority 2014, published 2016)
Entries after “also recorded” stand apart in the source; their conditions may differ.

How the values were obtained:
Type in all cases: cell-based, human
H1373 cells = test: 7-AAD assay in H1373 cells; conditions: H1373 (p53 null), 48 h after transfection
Procedure: (§1) Transfected T47D, MCF-7, MDA-MB-231, HeLa and H1373 cells were pelleted and resuspended in 500 μL PBS (Invitrogen) containing 1 μM 7-aminoactinomycin D (7-AAD) (Invitrogen) for 30 min prior to analysis following the recommended protocol from the manufacturer. The assay was performed 48 h after transfection for T47D, MCF-7 and H1373 and 24 h after transfection for MDA-MB-231 and HeLa. Only EGFP positive cells were analyzed by using the FACS Canto-II (BD-BioSciences) with FACS Diva software. EGFP and 7-AAD were excited with the 488 nm laser, and were detected at 507 nm and 660 nm, respectively. Independent transfections of each construct were tested three times (n=3).
(§2) Transfected T47D, H1373, SKOV-3 and HeLa cells were pelleted and re-suspended in 500 μL PBS (Invitrogen) containing 1 μM 7-aminoactinomycin D (7-AAD) (Invitrogen) for 30 min prior to analysis. T47D and H1373 cells were analyzed 48 h after transfection, while SKOV-3 and HeLa cells were analyzed 24 h after transfection (time points optimized empirically). Only EGFP positive cells were assayed using the FACS Canto-II (BD-BioSciences) with FACS Diva software as previously. EGFP and 7-AAD were excited at 488 nm, and detected at 507 nm and 660 nm, respectively. Independent transfections of each construct were assayed three times (n=3). The highest value (EGFP positive cells stained with 7-AAD) was set at 100%, and the lowest at 0% (relative 7-AAD) as previously.

T47D cells [1] = test: 7-AAD assay in T47D cells; conditions: 48 h after transfection, EGFP positive cells only
Procedure: as §1, §2

T47D cells [2] = test: TMRE assay (MOMP) in T47D cells; conditions: 36 h after transfection
Procedure: 36 h after transfection T47D cells were incubated with 100 nM tetramethylrhodamineethylester (TMRE) (Invitrogen) for 30 min at 37° C. T47D cells were pelleted and resuspended in 300 μL annexin-V binding buffer (1×) (Invitrogen). Only EGFP positive cells were analyzed by using the FACS Canto-II (BD-BioSciences) with FACS Diva software. EGFP was excited with the 488 nm laser with emission filter 530/35 and TMRE was excited with the 561 nm laser with the emission filter 585/15. Mitochondrial depolarization (loss in TMRE intensity) correlates with an increase in MOMP. Independent transfections of each construct were tested three times (n=3).
36 h after transfection T47D cells were incubated with 100 nM tetramethylrhodamine, ethylester (TMRE) (Invitrogen) for 30 min at 37° C., pelleted and resuspended in 300 μL annexin-V binding buffer (1×) (Invitrogen). The FACS Canto-II with FACS Diva software was used to analyze only EGFP positive cells (excited at 488 nm with emission 530/35) stained with TMRE (excited at 561 nm laser with the emission 585/15). Loss in TMRE intensity represents mitochondrial depolarization, which correlates with an increase in mitochondrial outer membrane permeabilization (MOMP). Independent transfections of each construct were assayed three times (n=3). The highest MOMP value was set as 100% and the lowest as 0% (relative MOMP) as before.

HeLa cells = test: 7-AAD assay in HeLa cells; conditions: 24 h after transfection
Procedure: as §1, §2

p53-Luc Cis-Reporter = test: p53 reporter gene (dual luciferase) assay in T47D cells; conditions: 24 h post transfection
Procedure: Luminescence was detected 24 h post transfection using PlateLumino (Stratec Biomedical Systems, Birkenfeld, Germany). Independent transfections of each constructs were assayed three times (n=3). The highest value was set at 100% and lowest value (untreated cells) was set as 0% (relative luminescence).

SKOV-3 cells = test: 7-AAD assay in SKOV-3 cells; conditions: SKOV-3 (p53 null), 24 h after transfection
Procedure: as §2

T47D cells [3] = test: Caspase-9 assay (SR FLICA) in T47D cells; conditions: 48 h after transfection
Procedure: T47D cells were probed 48 h after transfection using SR FLICA Caspase-9 Assay Kit (Immunochemistry Technologies, Bloomington, Minn.). Cells were incubated with SR FLICA Caspase-9 reagent for 60 min per manufacturer's recommendations, pelleted and resuspended in 300 μL 1× wash buffer (Immunochemistry Technologies). Only EGFP positive cells were analyzed by using the FACS Canto-II (BD-BioSciences) with FACS Diva software. EGFP and FLICA were excited with the 488 nm (emission filter 530/35) and the 561 laser (emission filter 585/15), respectively. Independent transfections of each construct were tested three times (n=3).
As previously described, 48 h after transfection, T47D cells were tested with SR FLICA Caspase-9 Assay Kit (Immunochemistry Technologies, Bloomington, Minn.). Cells were incubated with SR FLICA Caspase-9 reagent for 60 min, pelleted and re-suspended in 300 μL, 1× wash buffer (Immunochemistry Technologies). The FACS Canto-II with FACS Diva software was used to analyzed only EGFP positive cells stained with caspase-9, both were excited with the 488 nm (emission filter 530/35) and the 561 nm laser (emission filter 585/15), respectively. Independent transfections of each construct were assayed three times (n=3). The highest value (EGFP positive cells stained with caspase-9) was set as 100% and the lowest as 0% (relative caspase-9).

p53-BakMTS: MTS from Bak fused to the C-terminus of EGFP-p53
7-AAD positive cells (late apoptosis) (H1373 cells): statistically higher from their negative control E-BakMTS
7-AAD positive cells (late apoptosis) (T47D cells [1]): significant apoptotic effect compared to their corresponding negative controls; also recorded: significantly higher apoptosis compared to cells transfected with MTS negative controls; also recorded: induce apoptosis similarly to wt p53
% MOMP induction (loss of TMRE fluorescence) (T47D cells [2]): not significantly higher from wt p53
7-AAD positive cells (late apoptosis) (HeLa cells): significant from their corresponding negative controls
nuclear transcriptional activity (relative luminescence) (p53-Luc Cis-Reporter): no nuclear activity
7-AAD positive cells (late apoptosis) (SKOV-3 cells): significantly higher than their negative control E-BakMTS
caspase-9 activation (T47D cells [3]): significant effect; also recorded: not significantly higher from wt p53
